# Measured values reported in patent US8232402B2, “Quinolinone farnesyl transferase inhibitors for the treatment of synucleinopathies and other indications” (Link Medicine Corporation, priority 2008, dated 2012).
# Columns and labels:
# α-synuclein inclusions = test: Inclusion histology in α-synuclein transgenic mice (α-synuclein and ubiquitin immunostaining, Campbell-Switzer); format: in vivo; conditions: for α-synuclein-positive cells per mm^2 versus vehicle: cortex and hippocampus
# Procedure: (§1) Farnesyl transferase inhibitors Zarnestra and OSI-754 were administered to mice of the α-synuclein transgenic line described in Masliah et al. (Masliah et al. “Dopaminergic loss and inclusion body formation in alpha-synuclein mice: implications for neurodegenerative disorders” Science 287(5456): 1265-69, 2000; incorporated herein by reference). Animals from this line have α-synuclein neuronal inclusions in the cortex, hippocampus, and the olfactory bulb (Masliah et al. “Dopaminergic loss and inclusion body formation in alpha-synuclein mice: implications for neurodegenerative disorders” Science 287(5456): 1265-69, 2000; incorporated herein by reference). Transgenic mice were orally administered either FTI in 20% cyclodextrin solution or the same volume of vehicle alone twice a day for 30 or 90 days. In some cases, non-transgenic mice also received vehicle twice a day for 30 to 90 days. At the end of treatment, mice were sacrificed, and the brains removed and hemisected. One hemisphere of each was fixed in 4% paraformaldehyde/PBS (pH 7.4), cryoperserved, then sectioned for histology. The other hemisphere was subdivided into four brain regions, including the cortex and hippocampus, that were homogenized and processed into cytoplasmic and membrane fractions.
# Formation of α-synuclein inclusions in the cortex and hippocampus was probed by immunostaining with an antibody for human α-synuclein. Cells positive for human α-synuclein were quantified. […] These regions were also analyzed for ubiquitin-immunoreactive inclusions and by the Campbell Switzer method of silver staining. Ubiquitin is known to be a constituent of Lewy bodies and in the α-synculein inclusions found in the transgenic mouse line used in the study (Masliah et al. “Dopaminergic loss and inclusion body formation in alpha-synuclein mice: implications for neurodegenerative disorders” Science 287(5456): 1265-69, 2000; incorporated herein by reference). […] Campbell-Switzer staining is a general marker of Lewy Body type inclusions (Uchihara et al. “Silver stainings distinguish Lewy bodies and glial cytoplasmic inclusions: comparison between Gallyas-Braak and Campbell-Switzer methods” Acta Neuropathol (Berl) 110(3):255-60, 2005; incorporated herein by reference).
# Formation of α-synuclein inclusions in the cortex and hippocampus was probed by immunostaining with an antibody for human α-synuclein. Cells positive for human α-synuclein were quantified.
# [1] = test system: Neuronal Specific Nuclear Protein (NeuN); test: NeuN staining of cortex and hippocampus of α-synuclein transgenic mice; format: in vivo; conditions: 90 days
# [2] = target: recombinant farnesyl transferase (FTase) (Homo sapiens, UniProt P49354+P49356); test: In vitro farnesyl transferase assay (fluorescent dansyl-pentapeptide); format: biochemical; conditions: in vitro and in vivo
# From the text: These neuroblastoma cells can be differentiated into dopaminergic cells and are useful for assessing the pathogenesis of Parkinson's disease (PD). […] Similar findings were found in vivo. […] IC50 values for various inventive compounds have been determined in in vitro assays using recombinant farnesyl transferase and a dansylated pentapeptide substrate. For a description of the assay used, see Cassidy et al., Methods Enzymol. 250:30-43, 1995, which is incorporated herein by reference. […] The compounds were also found to inhibit the farnesylation of Ras in cells treated with the test compound. IC50 values in vivo range from about 0.5 nM to about 25 μM.
# Compounds were analyzed for inhibition of farnesyl transferase (FTase) activity using an established fluorescent peptide-based assay (Pompliano et al 1992 J. Am. Chem. Soc. 114:7945; U.S. Pat. No. 5,525,479, issued Jun. 11, 1996; each of which is incorporated herein by reference). In summary, a dansyl-pentapeptide (dGCVLS) (SEQ ID NO: 8) was incubated at […] with […] farnesyl pyrophosphate (FPP) and 25-50 nM FTase in 50 mM Tris-HC1/12 mM MgC12/[…]/6 mM DTT/0.2% octyl-D- -glucopyranoside/pH 7.0 at room temperature while the increase in fluorescence of the peptide at Ex =340 nm , Em =485 nm upon farnesyl addition was monitored continuously by a spectrofluorometer. […]
# farnesylated UCH-L1 = test: Farnesylated UCH-L1 in cortex membrane fraction of α-synuclein transgenic mice (quantitative Western blot); format: in vivo; conditions: normalized to actin, 45 mg/kg twice a day, 30 days
# Procedure: Farnesyl transferase inhibitors Zarnestra and OSI-754 were administered to mice of the α-synuclein transgenic line described in Masliah et al. (Masliah et al. “Dopaminergic loss and inclusion body formation in alpha-synuclein mice: implications for neurodegenerative disorders” Science 287(5456): 1265-69, 2000; incorporated herein by reference). Animals from this line have α-synuclein neuronal inclusions in the cortex, hippocampus, and the olfactory bulb (Masliah et al. “Dopaminergic loss and inclusion body formation in alpha-synuclein mice: implications for neurodegenerative disorders” Science 287(5456): 1265-69, 2000; incorporated herein by reference). […]
# Total α-synuclein levels were analyzed by a sandwich ELISA assay similar to one previously described (El-Agnaf et al. “Detection of oligomeric forms of alpha-synuclein protein in human plasma as a potential biomarker for Parkinson's disease” FASEB J. 20(3):419-25, 2006; incorporated herein by reference). […] Transgenic mice that received Zarnestra had lower α-synuclein protein levels than vehicle-treated transgenic mice and nearly the same as that detected in the non-transgenic group in both the cytoplasmic (FIG. 10) and membrane fractions (FIG. 11), which represent soluble and insoluble α-synuclein, respectively. […] The amount of UCH-L1 was determined by quantitative Western Blot. […]
# α-synuclein = α-synuclein sandwich ELISA in brain fractions of α-synuclein transgenic mice; format: in vivo
# Procedure: as §1
# Total α-synuclein levels were analyzed by a sandwich ELISA assay similar to one previously described (El-Agnaf et al. “Detection of oligomeric forms of alpha-synuclein protein in human plasma as a potential biomarker for Parkinson's disease” FASEB J. 20(3):419-25, 2006; incorporated herein by reference). In the cortex of vehicle treated animals, α-synuclein protein levels in the α-synuclein transgenic line are greater than in non-transgenic mice in both cytoplasmic (FIG. 10) and membrane fractions (FIG. 11). Transgenic mice that received Zarnestra had lower α-synuclein protein levels than vehicle-treated transgenic mice and nearly the same as that detected in the non-transgenic group in both the cytoplasmic (FIG. 10) and membrane fractions (FIG. 11), which represent soluble and insoluble α-synuclein, respectively. Farnesylated UCH-L1 in the cortex is contained in the membrane fraction. The amount of UCH-L1 was determined by quantitative Western Blot.
# [3] = α-synuclein transgenic mice, summary, dose not given
smiles,measurement,setting,value
C#Cc1cccc(-c2cc(=O)n(C)c3ccc(C(O)(c4ccc(Cl)cc4)c4cncn4C)cc23)c1 (stereo not drawn) [LNK-754],inclusions versus vehicle,"α-synuclein inclusions; 9 mg/kg twice a day, 90 days",fewer inclusions
same,inclusions versus vehicle,"α-synuclein inclusions; 45 mg/kg twice a day, 90 days",fewer inclusions
same,α-synuclein-positive cells per mm^2 versus vehicle,"α-synuclein inclusions; 9 mg/kg twice a day, 90 days",fewer α-synuclein-positive cells per mm^2
same,α-synuclein-positive cells per mm^2 versus vehicle,"α-synuclein inclusions; 45 mg/kg twice a day, 90 days",fewer α-synuclein-positive cells per mm^2
same,inclusions versus vehicle,α-synuclein inclusions; [3],fewer inclusions
same,neuronal morphology or density (NeuN staining),[1],did not affect neuronal morphology or density
same,inhibition of the farnesylation of proteins and/or peptides,[2],inhibit the farnesylation of proteins and/or peptides in vitro and in vivo
same,amount of farnesylated UCH-L1,farnesylated UCH-L1,decreased the amount of farnesylated UCH-L1
same,levels of α-synuclein protein (ELISA),"α-synuclein; cortex and hippocampus, 9 mg/kg twice a day, 90 days",decreased levels of α-synuclein protein
same,levels of α-synuclein protein (ELISA),"α-synuclein; cortex and hippocampus, 45 mg/kg twice a day, 90 days",decreased levels of α-synuclein protein
same,levels of α-synuclein protein (ELISA),"α-synuclein; cortex, cytoplasmic and membrane fractions, 45 mg/kg twice a day, 30 days",decreased levels of α-synuclein protein
same,levels of α-synuclein in the cortex,α-synuclein; [3],decrease levels of α-synuclein in the cortex
